Converted amounts (≈) assume the structure as drawn.
Assays:
Punta Toro virus = assay: Antiviral activity against Punta Toro virus in Vero cells reduction of virus-induced cytopathogenicity after 4 days; type: functional, organism-based; settings: 96 h
Vero = assay: Cytotoxicity against Vero cells assessed as alteration in morphology after 3 days; type: cell-based, Chlorocebus sabaeus; settings: Chlorocebus sabaeus, Vero, 72 h
Human betaherpesvirus 5 [1] = type: functional, organism-based; settings: Human betaherpesvirus 5, AD169, HEL
[2] = Cytotoxicity against C3H cells assessed as alteration in morphology after 3 days; type: cell-based, Mus musculus; settings: Mus musculus, C3H, 72 h
[3] = system: Vesicular stomatitis virus; assay: microbe, parasite or virus in culture; settings: HEL
[4] = system: Vesicular stomatitis virus; assay: microbe, parasite or virus in culture; settings: HeLa
Human alphaherpesvirus 3 [5] = type: functional, organism-based; settings: Human alphaherpesvirus 3, 07-1, HEL
Sindbis virus = assay: Antiviral activity against Sindbis virus in Vero cells reduction of virus-induced cytopathogenicity after 4 days; type: functional, organism-based; settings: 96 h
[6] = system: Mammalian orthoreovirus 1; assay: Antiviral activity against Reovirus 1 in Vero cells reduction of virus-induced cytopathogenicity after 4 days; type: functional, organism-based; settings: Mammalian orthoreovirus 1, Vero, 96 h
[7] = system: Human immunodeficiency virus 1; type: functional, organism-based; settings: Human immunodeficiency virus 1, 3B, CCRF-CEM, 96 h
Coxsackievirus B4 [8] = type: functional, organism-based; settings: Enterovirus B, Vero
[9] = Cytotoxicity against HSB2 cells assessed as alteration in morphology after 3 days; type: functional, Homo sapiens, CCRF-HSB-2; settings: Homo sapiens, CCRF-HSB-2, 72 h; read-out: MCC
Coxsackievirus B4 [10] = type: functional, organism-based; settings: Enterovirus B, HeLa
[11] = system: Human immunodeficiency virus 2; type: functional, organism-based; settings: Human immunodeficiency virus 2, ROD, CCRF-CEM, 96 h
Human adenovirus 2 = type: functional, organism-based; settings: Human mastadenovirus C, HEL
CCRF-CEM = assay: Cytotoxicity against CEM cells assessed as cell growth after 3 days; type: functional; settings: Homo sapiens, 72 h
MOLT-3 = assay: Cytotoxicity against MOLT3 cells assessed as alteration in morphology after 3 days; type: functional, Homo sapiens; settings: Homo sapiens, MOLT-3, 72 h; read-out: MCC
Human respirovirus 3 = assay: Antiviral activity against Parainfluenza 3 in Vero cells reduction of virus-induced cytopathogenicity after 4 days; type: functional, organism-based; settings: Human respirovirus 3, Vero, 96 h
Human alphaherpesvirus 2 [12] = type: functional, organism-based; settings: Human alphaherpesvirus 2, G, HEL
Human betaherpesvirus 5 [13] = type: functional, organism-based; settings: Human betaherpesvirus 5, Davis, HEL
[14] = system: Moloney murine sarcoma virus; settings: C3H
HEL [15] = assay: Cytotoxicity against HEL cells assessed as cell growth after 3 days; type: functional, Homo sapiens; settings: Homo sapiens, HEL, 72 h; read-out: CC50
Human alphaherpesvirus 3 [16] = type: functional, organism-based; settings: Human alphaherpesvirus 3, OKA, HEL
Human alphaherpesvirus 2 [17] = type: functional, organism-based; settings: Human alphaherpesvirus 2, Lyons, HEL
HEL [18] = assay: Cytotoxicity against HEL cells assessed as alteration in morphology after 3 days; type: functional; settings: Homo sapiens, 72 h
[19] = system: Respiratory syncytial virus; type: functional, organism-based; settings: human respiratory syncytial virus, HeLa
HeLa = assay: Cytotoxicity against HeLa cells assessed as alteration in morphology after 3 days; type: functional, cell-based; settings: Homo sapiens, 72 h

## CCCCCCCCCCCCCCCCCCOP1(=O)CO[C@@H](Cn2cnc(N)nc2=O)CO1 (some centres not stated)
Punta Toro virus
  EC50: > 8 µg/mL
Vero
  EC50: 40 µg/mL (≈ 77.7 µM)
Human betaherpesvirus 5 [1]
  EC50: 0.0037 µg/mL (≈ 0.00719 µM)
[2]
  EC50: 20 µg/mL (≈ 38.9 µM)
[3]
  EC50: > 1.6 µg/mL
[4]
  EC50: > 40 µg/mL
Human alphaherpesvirus 3 [5]
  EC50: 0.009 µg/mL (≈ 0.0175 µM)
Sindbis virus
  EC50: > 8 µg/mL
[6]
  EC50: > 8 µg/mL
[7]
  EC50: > 20 µg/mL
Coxsackievirus B4 [8]
  EC50: > 8 µg/mL
[9]
  MCC: ≥ 5 µg/mL
Coxsackievirus B4 [10]
  EC50: > 40 µg/mL
[11]
  EC50: > 20 µg/mL
Human adenovirus 2
  EC50: 0.051 µg/mL (≈ 0.0991 µM)
CCRF-CEM
  CC50: 12 µg/mL (≈ 23.3 µM)
MOLT-3
  MCC: 0.8 µg/mL
Human respirovirus 3
  EC50: > 8 µg/mL
Human alphaherpesvirus 2 [12]
  EC50: 1.66 µg/mL (≈ 3.23 µM)
Human betaherpesvirus 5 [13]
  EC50: 0.0014 µg/mL (≈ 0.00272 µM)
[14]
  EC50: > 4 µg/mL
HEL [15]
  CC50: > 100 µg/mL
Human alphaherpesvirus 3 [16]
  EC50: 0.04 µg/mL (≈ 0.0777 µM)
Human alphaherpesvirus 2 [17]
  EC50: 1.31 µg/mL (≈ 2.55 µM)
HEL [18]
  MCC: 8 µg/mL
[19]
  EC50: > 40 µg/mL
HeLa
  EC50: 200 µg/mL (≈ 389 µM)

— ChEMBL document CHEMBL1138246, “Ester prodrugs of cyclic 1-(S)-[3-hydroxy-2-(phosphonomethoxy)propyl]-5-azacytosine: synthesis and antiviral activity” (J Med Chem, 2007)
